Data reported in patent publication US8871753B2, “Macrocyclic compounds and their use as kinase inhibitors” (Incyte Corporation, priority 2008, dated 2014).
Where a name gives a salt, the structure may show the parent alone. Read-outs that look alike come from different tables or passages of the source.

Tests used:
Assay type in all cases: biochemical
[1] = target: T1, human JAK1 (a.a. 837-1142) (Homo sapiens, UniProt P23458); assay: In vitro JAK kinase assay (HTRF, phosphorylation of a biotinylated peptide), JAK1; conditions: read-out: JAK1 IC50
T1 construct: human JAK1 (a.a. 837-1142); His tag (N); made in house; host or cells: insect cells (baculovirus)
Summary of the method: (§1)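 Kinase activity was measured as phosphorylation of a biotinylated peptide, with ATP at 90 μM for JAK1, 30 μM for JAK2 and 3 μM for JAK3. Reactions ran 1 hr at room temperature, were stopped with EDTA plus SA-APC and Eu-Py20, and were read by HTRF after 40 minutes of antibody binding.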

[2] = target: T2, human JAK2 (a.a. 828-1132) (Homo sapiens, UniProt O60674); assay: In vitro JAK kinase assay (HTRF, phosphorylation of a biotinylated peptide), JAK2
T2 construct: JAK2 (a.a. 828-1132); His tag (N); made in house; host or cells: insect cells (baculovirus)
Summary of the method: as §1

[3] = target: T3, human JAK3 (a.a. 781-1124) (Homo sapiens, UniProt P52333); assay: In vitro JAK kinase assay (HTRF, phosphorylation of a biotinylated peptide), JAK3
T3 construct: JAK3 (a.a. 781-1124); His tag (N); made in house; host or cells: insect cells (baculovirus)
Summary of the method: as §1

[4] = target: TYK2 (Homo sapiens, UniProt P29597); assay: TYK2 kinase inhibition (Table A1)
[5] = target: T4, Recombinant Human Anaplastic Lymphoma Kinase (Homo sapiens, UniProt Q9UM73); assay: ALK HTRF kinase assay; conditions: for IC50: Table B1, cells without percent sign
T4 construct: purchased Invitrogen, Carlsbad, Calif
Summary of the method: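 TR-FRET read-out (Eu anti-pTyr antibody + streptavidin-APC) of biotin-peptide phosphorylation by recombinant human enzyme; IC50 by sigmoidal fit with top/bottom baselines and Hill slope.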

[6] = method AA1 (90 μM ATP) or AA2 (1000 μM ATP), not stated per value
[7] = method AA1 (30 μM ATP) or AA2 (1000 μM ATP), not stated per value
[8] = method AA1 (3 μM ATP) or AA2 (1000 μM ATP), not stated per value
[9] = compound at 500 nM or 1 mM, 90 μM ATP
[10] = compound at a concentration of 500 nM or 1 mM (not specified), cells shown as percentage
[11] = percentage inhibition of the example compound at a concentration of 500 nM or 1 mM (not specified which)

T2 sequence (O60674 828-1132): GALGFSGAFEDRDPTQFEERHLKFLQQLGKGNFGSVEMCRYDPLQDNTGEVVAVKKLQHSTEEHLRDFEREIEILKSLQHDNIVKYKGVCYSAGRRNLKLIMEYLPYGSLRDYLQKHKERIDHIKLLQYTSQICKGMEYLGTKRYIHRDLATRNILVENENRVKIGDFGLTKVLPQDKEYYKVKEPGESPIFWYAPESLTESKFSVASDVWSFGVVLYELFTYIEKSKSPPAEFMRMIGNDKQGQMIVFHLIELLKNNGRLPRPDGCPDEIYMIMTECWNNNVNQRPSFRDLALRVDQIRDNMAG
T3 sequence (P52333 781-1124): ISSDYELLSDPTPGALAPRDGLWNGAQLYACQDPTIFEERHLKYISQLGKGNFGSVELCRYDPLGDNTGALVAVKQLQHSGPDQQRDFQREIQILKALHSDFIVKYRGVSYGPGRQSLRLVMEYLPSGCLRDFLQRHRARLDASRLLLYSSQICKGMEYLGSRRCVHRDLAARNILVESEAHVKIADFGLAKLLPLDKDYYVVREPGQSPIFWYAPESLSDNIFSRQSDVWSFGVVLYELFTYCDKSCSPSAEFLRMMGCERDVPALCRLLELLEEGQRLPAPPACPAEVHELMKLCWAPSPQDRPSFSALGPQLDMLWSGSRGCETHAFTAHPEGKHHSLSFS
T4 sequence (Q9UM73 19-1620): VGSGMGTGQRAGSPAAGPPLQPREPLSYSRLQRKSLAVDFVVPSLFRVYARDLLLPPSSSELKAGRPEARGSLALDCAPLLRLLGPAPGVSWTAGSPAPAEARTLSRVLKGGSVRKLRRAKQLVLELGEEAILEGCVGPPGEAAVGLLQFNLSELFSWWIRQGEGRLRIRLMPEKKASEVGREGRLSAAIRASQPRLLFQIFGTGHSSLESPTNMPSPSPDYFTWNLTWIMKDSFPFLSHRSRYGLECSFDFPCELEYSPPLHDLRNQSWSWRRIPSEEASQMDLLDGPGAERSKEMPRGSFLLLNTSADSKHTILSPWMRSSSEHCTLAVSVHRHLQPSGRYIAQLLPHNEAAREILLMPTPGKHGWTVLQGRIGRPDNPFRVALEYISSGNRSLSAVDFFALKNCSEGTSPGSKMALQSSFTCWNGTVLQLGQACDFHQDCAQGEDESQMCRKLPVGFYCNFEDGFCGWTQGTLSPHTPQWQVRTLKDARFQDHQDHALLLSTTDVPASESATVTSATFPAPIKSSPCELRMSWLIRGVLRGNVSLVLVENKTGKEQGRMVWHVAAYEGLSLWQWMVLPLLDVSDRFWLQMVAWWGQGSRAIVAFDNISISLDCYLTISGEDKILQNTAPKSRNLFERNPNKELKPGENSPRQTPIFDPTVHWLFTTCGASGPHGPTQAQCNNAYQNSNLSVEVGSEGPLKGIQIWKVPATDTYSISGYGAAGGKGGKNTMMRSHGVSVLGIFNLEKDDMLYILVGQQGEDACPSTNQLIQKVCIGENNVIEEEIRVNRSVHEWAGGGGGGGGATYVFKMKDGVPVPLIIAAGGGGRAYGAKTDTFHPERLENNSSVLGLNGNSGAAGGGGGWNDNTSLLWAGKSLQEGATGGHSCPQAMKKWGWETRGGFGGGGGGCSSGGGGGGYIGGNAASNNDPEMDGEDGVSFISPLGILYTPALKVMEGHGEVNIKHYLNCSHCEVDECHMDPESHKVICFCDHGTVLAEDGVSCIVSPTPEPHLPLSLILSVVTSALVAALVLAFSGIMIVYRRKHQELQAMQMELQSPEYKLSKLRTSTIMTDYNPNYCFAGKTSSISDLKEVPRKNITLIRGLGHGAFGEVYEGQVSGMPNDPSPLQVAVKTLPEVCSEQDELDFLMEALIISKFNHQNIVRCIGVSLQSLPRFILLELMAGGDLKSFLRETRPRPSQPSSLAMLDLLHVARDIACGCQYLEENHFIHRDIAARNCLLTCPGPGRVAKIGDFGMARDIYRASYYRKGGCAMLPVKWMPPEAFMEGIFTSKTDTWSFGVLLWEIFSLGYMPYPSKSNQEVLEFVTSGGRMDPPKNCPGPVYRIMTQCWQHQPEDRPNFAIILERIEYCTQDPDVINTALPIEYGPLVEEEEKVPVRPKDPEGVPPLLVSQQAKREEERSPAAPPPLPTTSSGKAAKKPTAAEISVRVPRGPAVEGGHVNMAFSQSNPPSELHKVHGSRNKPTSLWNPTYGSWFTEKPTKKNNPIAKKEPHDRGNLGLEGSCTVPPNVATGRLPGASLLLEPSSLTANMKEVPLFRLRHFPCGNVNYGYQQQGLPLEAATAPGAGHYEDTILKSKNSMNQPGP
Chain of TYK2 (P29597 whole entry): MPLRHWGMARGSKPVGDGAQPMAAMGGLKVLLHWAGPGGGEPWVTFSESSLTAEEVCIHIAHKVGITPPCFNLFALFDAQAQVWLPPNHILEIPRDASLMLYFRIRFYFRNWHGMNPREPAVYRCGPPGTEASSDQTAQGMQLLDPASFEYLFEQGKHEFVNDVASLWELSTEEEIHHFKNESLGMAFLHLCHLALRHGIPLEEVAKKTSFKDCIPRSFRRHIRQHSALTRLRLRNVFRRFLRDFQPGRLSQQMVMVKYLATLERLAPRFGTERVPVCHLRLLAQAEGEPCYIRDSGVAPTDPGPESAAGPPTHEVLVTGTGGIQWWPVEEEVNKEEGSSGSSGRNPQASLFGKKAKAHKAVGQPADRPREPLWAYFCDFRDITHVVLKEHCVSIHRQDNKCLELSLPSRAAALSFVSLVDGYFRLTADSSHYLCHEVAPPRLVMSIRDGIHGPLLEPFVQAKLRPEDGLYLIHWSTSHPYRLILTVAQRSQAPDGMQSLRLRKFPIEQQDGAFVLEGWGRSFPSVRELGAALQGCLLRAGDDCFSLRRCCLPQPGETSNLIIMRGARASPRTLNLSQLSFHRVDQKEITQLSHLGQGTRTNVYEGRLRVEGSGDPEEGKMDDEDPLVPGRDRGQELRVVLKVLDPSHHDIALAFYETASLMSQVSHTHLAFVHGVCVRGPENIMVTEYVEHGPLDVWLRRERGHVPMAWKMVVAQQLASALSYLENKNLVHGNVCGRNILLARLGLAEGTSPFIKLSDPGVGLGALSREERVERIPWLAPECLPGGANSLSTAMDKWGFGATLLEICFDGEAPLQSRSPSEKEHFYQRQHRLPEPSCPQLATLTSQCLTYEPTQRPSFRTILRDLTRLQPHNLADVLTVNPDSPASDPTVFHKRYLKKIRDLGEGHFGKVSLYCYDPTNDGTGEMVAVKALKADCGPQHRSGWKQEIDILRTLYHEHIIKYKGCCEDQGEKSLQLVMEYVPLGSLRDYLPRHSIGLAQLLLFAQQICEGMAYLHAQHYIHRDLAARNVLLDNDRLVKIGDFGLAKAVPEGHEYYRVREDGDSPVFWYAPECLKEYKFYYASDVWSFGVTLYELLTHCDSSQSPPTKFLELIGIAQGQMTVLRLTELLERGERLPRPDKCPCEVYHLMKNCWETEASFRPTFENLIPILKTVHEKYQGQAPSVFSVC
T1 sequence (P23458 849-1154): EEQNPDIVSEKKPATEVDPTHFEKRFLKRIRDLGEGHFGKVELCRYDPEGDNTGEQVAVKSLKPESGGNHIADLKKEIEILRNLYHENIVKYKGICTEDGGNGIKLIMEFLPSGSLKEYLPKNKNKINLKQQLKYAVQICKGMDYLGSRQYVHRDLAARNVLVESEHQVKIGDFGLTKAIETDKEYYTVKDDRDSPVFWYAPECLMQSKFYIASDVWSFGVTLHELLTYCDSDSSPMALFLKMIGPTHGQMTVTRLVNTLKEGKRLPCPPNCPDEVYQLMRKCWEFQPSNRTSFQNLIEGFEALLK

| SMILES | IC50 [1, 6] | IC50 [2, 7] | IC50 [3, 8] | IC50 [4] | ALK % of inhibition at a concentration of 500 nM or 1 mM [5, 9] | IC50 ([1]; Table B1) | IC50 ([2]; Table B1) | IC50 ([3]; Table B1) | IC50 ([4]; Table B1) | IC50 [5] | ALK % of inhibition at a concentration of 500 nM or 1 mM [5, 10] | ALK % of inhibition at a concentration of 500 nM or 1 mM [5, 11] |
| --- | --- | --- | --- | --- | --- | --- | --- | --- | --- | --- | --- | --- |
| CC(C)(C)NC(=O)N1CCC(CC(=O)Nc2ccc3cc2CCc2cccc(c2)Nc2ncc(Cl)c(n2)N3)CC1 [Example A85, N-(tert-Butyl)-4-(2-{[6-chloro-2,4,8,22-tetraazatetracyclo[14.3.1.1(3,7).1(9,13)]docosa-1(20),3(22),4,6,9(21),10,12,16,18-nonaen-12-yl]amino}-2-oxoethyl)piperidine-1-carboxamide trifluoroacetate] | 49 nM | 13 nM | 147 nM | 33 nM | 19% | – | – | – | – | – | – | – |
| CCS(=O)(=O)Nc1ccc2cc1CCc1cccc(c1)Nc1ncc(Cl)c(n1)N2 [Example B141, N-[6-Chloro-2,4,8,22-tetraazatetracyclo[14.3.1.1(3,7).1(9,13)]docosa-1(20), 3(22),4,6,9(21),10,12,16,18-nonaen-12-yl]ethanesulfonamide trifluoroacetate] | – | – | – | – | – | 0.8 nM | 0.2 nM | 3 nM | 1.2 nM | 740 nM | – | – |
| Cc1occc1NC(=O)Nc1ccc2cc1CCc1cccc(c1)Nc1ncc(Cl)c(n1)N2 [Example B118, N-[6-Chloro-2,4,8,22-tetraazatetracyclo[14.3.1.1(3,7).1(9,13)]docosa-1(20), 3(22),4,6,9(21),10,12,16,18-nonaen-12-yl]-N′-(2-methyl-3-furyl)urea trifluoroacetate] | – | – | – | – | – | 1.3 nM | 2.1 nM | 20 nM | 7.7 nM | – | 22% | – |
| O=C(Nc1ccc2cc1CCc1cccc(c1)Nc1ncc(Cl)c(n1)N2)C1CCN(C(=S)Nc2ccccc2)CC1 [Example A43, 1-(Anilinocarbonothioyl)-N-[6-chloro-2,4,8,22-tetraazatetracyclo[14.3.1.1(3,7).1(9,13)]docosa-1(20),3(22),4,6,9(21),10,12,16,18-nonaen-12-yl]piperidine-4-carboxamide trifluoroacetate] | 1 nM | 4.8 nM | 36 nM | 48 nM | 32% | – | – | – | – | – | – | – |
| Cc1noc(C)c1S(=O)(=O)N1CCC(CC(=O)Nc2ccc3cc2CCc2cncc(c2)Nc2ncc(Cl)c(n2)N3)CC1 [Example A231, N-[6-chloro-2,4,8,18,22-pentaazatetracyclo[14.3.1.1(3,7).1(9,13)]docosa-1(20),3(22),4,6,9(21),10,12,16,18-nonaen-12-yl]-2-{1-[(3,5-dimethylisoxazol-4-yl)sulfonyl]piperidin-4-yl}acetamide bis(trifluoroacetate)] | 9.7 nM | 85 nM | > 400 nM | 98 nM | 46% | – | – | – | – | – | – | – |
| CN(C)c1ccc(C(=O)Nc2ccc3cc2CCc2cccc(c2)Nc2ncc(Cl)c(n2)N3)cc1 [Example B82, N-[6-Chloro-2,4,8,22-tetraazatetracyclo[14.3.1.1(3,7).1(9,13)]docosa-1(20), 3(22),4,6,9(21),10,12,16,18-nonaen-12-yl]-4-(dimethylamino)benzamide bis(trifluoroacetate)] | – | – | – | – | – | 7.9 nM | 7.6 nM | 44 nM | 14 nM | – | 39% | – |
| O=C(NCCO)Nc1ccc2cc1CCc1cccc(c1)Nc1ncc(Cl)c(n1)N2 [Example B241, N-[6-Chloro-2,4,8,22-tetraazatetracyclo[14.3.1.1(3,7).1(9,13)]docosa-1(20),3(22),4,6,9(21),10,12,16,18-nonaen-12-yl]-N′-(2-hydroxyethyl)urea trifluoroacetate] | – | – | – | – | – | 1.1 nM | 1.5 nM | 10 nM | 3.5 nM | – | 22% | – |
| O=C(NCCNS(=O)(=O)C1CC1)Nc1ccc2cc1CCc1cccc(c1)Nc1ncc(Cl)c(n1)N2 [Example B327, N-{2-[({[6-Chloro-2,4,8,22-tetraazatetracyclo[14.3.1.1(3,7).1(9,13)]docosa-1(20),3(22),4,6,9(21),10,12,16,18-nonaen-12-yl]amino}carbonyl)amino]ethyl}cyclopropanesulfonamide trifluoroacetate] | – | – | – | – | – | 2 nM | 1.8 nM | 4.2 nM | 5 nM | – | – | 19% |
| O=C(CC1CCN(C(=O)c2ccccc2)CC1)Nc1ccc2cc1CCc1cccc(c1)Nc1ncc(Cl)c(n1)N2 [Example A56, 2-(1-Benzoylpiperidin-4-yl)-N-[6-chloro-2,4,8,22-tetraazatetracyclo[14.3.1.1(3,7).1(9,13)]docosa-1(20),3(22),4,6,9(21),10,12,16,18-nonaen-12-yl]acetamide trifluoroacetate] | 4.2 nM | 7.3 nM | 90 nM | 10 nM | 26% | – | – | – | – | – | – | – |
| CC(C)c1cc(C(=O)N2CCC(CC(=O)Nc3ccc4cc3CCc3cncc(c3)Nc3ncc(Cl)c(n3)N4)CC2)no1 [Example A214, N-[6-Chloro-2,4,8,18,22-pentaazatetracyclo[14.3.1.1(3,7).1(9,13)]docosa-1(20),3(22),4,6,9(21),10,12,16,18-nonaen-12-yl]-2-{1-[(5-isopropylisoxazol-3-yl)carbonyl]piperidin-4-yl}acetamide bis(trifluoroacetate)] | 50 nM | > 200 nM | > 200 nM | > 200 nM | 15% | – | – | – | – | – | – | – |
| N#Cc1cc(F)c(Cl)nc1N1CCC(CC(=O)Nc2ccc3cc2CCc2cncc(c2)Nc2ncc(Cl)c(n2)N3)CC1 [Example A241, 2-[1-(6-Chloro-3-cyano-5-fluoropyridin-2-yl)piperidin-4-yl]-N-[6-chloro-2,4,8,18,22-pentaazatetracyclo[14.3.1.1(3,7).1(9,13)]docosa-1(20),3(22),4,6,9(21),10,12,16,18-nonaen-12-yl]acetamide tris(trifluoroacetate)] | 42 nM | > 400 nM | > 400 nM | > 400 nM | 14% | – | – | – | – | – | – | – |
| CN(Cc1ccc2cc1CCc1cncc(c1)Nc1ncc(Cl)c(n1)N2)CC1CCNCC1 [Example B339, 1-[6-Chloro-2,4,8,18,22-pentaazatetracyclo[14.3.1.1(3,7).1(9,13)]docosa-1(20),3(22),4,6,9(21),10,12,16,18-nonaen-12-yl]-N-methyl-N-(piperidin-4-ylmethyl)methanamine Tetrahydrochloride] | – | – | – | – | – | 172 nM | > 400 nM | > 400 nM | > 400 nM | – | – | 41% |
| Clc1cnc2nc1Nc1cc(cc(CN3CCN(Cc4cc(Br)cs4)CC3)c1)CCc1cccc(c1)N2 [Example B196, 11-({4-[(4-Bromo-2-thienyl)methyl]piperazin-1-yl}methyl)-6-chloro-2,4,8,22-tetraazatetracyclo[14.3.1.1(3,7).1(9,13)]docosa-1(20),3(22),4,6,9(21),10,12,16,18-nonaene tris(trifluoroacetate)] | – | – | – | – | – | 3.5 nM | 0.88 nM | 48 nM | 111 nM | > 10000 nM | – | – |
| Cn1cnc(S(=O)(=O)Nc2ccc3cc2CCc2cccc(c2)Nc2ncc(Cl)c(n2)N3)c1 [Example B144, N-[6-Chloro-2,4,8,22-tetraazatetracyclo[14.3.1.1(3,7).1(9,13)]docosa-1(20), 3(22),4,6,9(21),10,12,16,18-nonaen-12-yl]-1-methyl-1H-imidazole-4-sulfonamide bis(trifluoroacetate)] | – | – | – | – | – | 0.34 nM | 0.2 nM | 4.2 nM | 0.5 nM | 600 nM | – | – |
| O=C(CC1CCN(C(=O)c2ccc(F)cc2)CC1)Nc1ccc2cc1CCc1cccc(c1)Nc1ncc(Cl)c(n1)N2 [Example A203, N-[6-Chloro-2,4,8,22-tetraazatetracyclo[14.3.1.1(3,7).1(9,13)]docosa-1(20),3(22),4,6,9(21),10,12,16,18-nonaen-12-yl]-2-[1-(4-fluorobenzoyl)piperidin-4-yl]acetamide trifluoroacetate] | 38 nM | 150 nM | > 200 nM | > 200 nM | 38% | – | – | – | – | – | – | – |
| CC(CO)NC(=O)Nc1ccc2cc1CCc1cccc(c1)Nc1ncc(Cl)c(n1)N2 (centres unmarked) [Example B242, N-[6-Chloro-2,4,8,22-tetraazatetracyclo[14.3.1.1(3,7).1(9,13)]docosa-1(20),3(22),4,6,9(21),10,12,16,18-nonaen-12-yl]-N′-(2-hydroxy-1-methylethyl)urea trifluoroacetate] | – | – | – | – | – | 2.8 nM | 2 nM | 12 nM | 6.9 nM | – | 16% | – |
